Measurements taken from patent US20160135468A1, “A Composition for Enhanced Biocidal Activity and Water Purification Device on the Same” (INDIAN INSTITUTE OF TECHNOLOGY, priority 2013, published 2016).

Tests used:
[1] = 25° C.; cited from earlier work
MS2 bacteriophage [2] = experiment: Virus killing efficiency, plaque assay (Example 9); type: cell-based
MS2 bacteriophage [3] = experiment: Kinetics of virus killing efficiency (Example 10); type: cell-based
Description: Synthetic water having the TDS between 300-500 ppm and pH=7±0.2 was used in the study. […] 1 mL of the sample along with soft agar was plated on a sterile petridish using plaque assay method after 15 min, 30 min, 45 min and 60 min of contact time.

E. coli [4] = experiment: Bacterial killing efficiency with varying humic acid (Example 4); type: cell-based
Description: In an aspect, 100 mL of synthetic water samples (typically containing bacterial concentration of 1×10^5 CFU/mL, unless otherwise mentioned) containing varying concentrations of humic acid were separately shaken with Ag^+(50 ppb) and Ag^+(50 ppb)/CO3^2−(20 ppm). Synthetic challenge water contains all the ions as prescribed by US NSF for challenge water studies. […] After one hour of standing, 1 mL from the samples was plated along with agar on a sterile petridish using pour plate method.

E. coli [5] = experiment: Bacterial killing efficiency in sea salt containing water (Example 2); type: cell-based; settings: Ag^+ 50 ppb (composition with CO3^2− 20 ppm), input 1×10^5 CFU/mL, 1 h standing
Description: In an aspect, 100 mL of synthetic water (typically containing E. coli concentration of 1×10^5 CFU/mL, unless otherwise mentioned) with Ag^+ (50 ppb) and Ag^+ (50 ppb)/CO3^2− (20 ppm) was separately shaken with different concentrations of sea salt. […] Synthetic challenge water contains all the ions as prescribed by US NSF for challenge water studies. Typically, one hour of standing time, unless otherwise mentioned, is provided for the exposure of microorganisms to the biocidal composition. After one hour of standing, 1 mL from the samples was plated along with agar on a sterile petridish using the pour plate method.

E. coli [6] = settings: cited from earlier work
S. aureus (MTCC 96) = experiment: S. aureus killing efficiency (Example 6); type: cell-based
Description: In an aspect, 100 mL of synthetic water (typically containing E-coli concentration of 1×10^5 CFU/mL, unless otherwise mentioned) was separately shaken with Ag^+ and Ag^+/CO3^2−. Synthetic challenge water contains all the ions as prescribed by US NSF for challenge water studies. Source of carbonate ion is chosen one amongst the following: sodium carbonate, potassium carbonate or ammonium carbonate or a combination thereof. Source of Ag^+ is chosen one amongst the following: silver nitrate, silver acetate, silver sulfate, silver fluoride or a combination thereof. 1 mL of the sample was plated along with nutrient agar on a sterile petridish using the pour plate method after 1 h. After 48 hours of incubation of plating at 37° C., the colonies were counted and recorded.

S. aureus = settings: 50 ppb silver ion; input 10^7 CFU/mL; cited from earlier work
MS2 bacteriophage [7] = experiment: Virus killing efficiency at higher virus input load (Example 11); type: cell-based; settings: input virus concentration higher than 10^3 PFU/mL; silver ion alone
Description: Synthetic challenge water contains all the ions as prescribed by US NSF for challenge water studies. […] After one hour of contact time, 1 mL of the sample along with soft agar was plated on a sterile petridish using plaque assay method.

E. coli [8] = experiment: Bacterial killing efficiency at low silver ion concentration (Example 3); type: cell-based
Excerpt: This example describes the method of measuring the bacterial killing efficiency of the composition in comparison to silver ion, when low concentration of silver ion is used. […] Synthetic challenge water contains all the ions as prescribed by US NSF for challenge water studies. Source of carbonate ion is chosen one amongst the following: sodium carbonate, potassium carbonate or ammonium carbonate or a combination thereof. Source of Ag^+ is chosen one amongst the following: silver nitrate, silver acetate, silver sulfate, silver fluoride or a combination thereof. After one hour of standing, 1 mL from the samples was plated along with agar on a sterile petridish using pour plate method.

E-coli [9] = experiment: Sterility of stored treated water (Example 7); type: cell-based; settings: 24 h storage
E-coli [10] = experiment: Bacterial killing efficiency of M^n+ and M^n+/CO3^2− (Example 5); type: cell-based; settings: iron 200 ppb, zinc 1 ppm, carbonate 20 ppm; input 1×10^5 CFU/mL

In the case of [Cl][Ag] [AgCl], the solubility in water [1] is given as 1.9 µg/mL.
In the case of [Ag+] [Ag^+, silver ion], the residual virus (MS2 bacteriophage [2]; higher silver ion concentration without SiO3^2− or CO3^2−) is reported as “residual virus concentration is present”, the “time at which virus killing efficiency reaches a saturation value” (MS2 bacteriophage [3]; Ag^+ 50 ppb alone) is reported as 1 h and the “humic acid concentration up to which bacterial count is handled” value (E. coli [4]; 50 ppb Ag^+) is reported as “up to 5 ppm”. For the same molecule, the output count (E. coli [4]; humic acid 50 ppm, Ag^+ 50 ppb (composition with CO3^2− 20 ppm), input 1×10^5 CFU/mL) was “near to the input concentration”, the output bacterial count (E. coli [5]; sea salt 850 ppm) was 2000 CFU/mL and the output bacterial count (E. coli [5]; sea salt 1100 ppm) was 10,000 CFU/mL. For the same molecule, the “minimum concentration of silver necessary for antibacterial activity” value (E. coli [6]) was 40-50 ppb, the S. aureus concentration (S. aureus (MTCC 96); silver ion up to 50 ppb, 1 h standing) was ≥ 10^3 CFU/mL and the “time to inactivate S. aureus” value (S. aureus) was “over 24 h”. The virus killing ability (MS2 bacteriophage [7]) was “unable to obtain complete virus killing ability”, the “residual viable bacterial count” value (E. coli [8]; 50 ppb Ag^+, input 1×10^5 CFU/mL, 1 h) was 10-50 CFU/mL and the “antibacterial activity, log reduction” value (E. coli [8]; silver ion below 40-50 ppb, synthetic challenge water) was 2-3 log reduction. The “bacterial count after storage” value (E-coli [9]; lower silver concentrations (<50 ppb)) was > 10^3 CFU/mL and the “bacterial count after storage” value (E-coli [9]; silver ion 50 ppb) was 0 CFU/mL.
For O=C(O)O [CO3^2−, carbonate], the virus killing efficiency (MS2 bacteriophage [2]; 20 ppm CO3^2−, no Ag^+, 1 h) was 25%, the virus killing efficiency (MS2 bacteriophage [3]; 20 ppm CO3^2−, standing time 1 h) was 20% and the viable bacteria count (S. aureus (MTCC 96); 20 ppm CO3^2− alone) was > 10^5 CFU/mL. For the same molecule, the “reduction in bacterial count by itself” value (E. coli [8]; CO3^2− without Ag^+) was “doesn't provide a significant reduction in bacterial count”.
With [Fe+3] [Fe^3+] the “reduction in bacterial count” value (E-coli [10]) was “does not offer any reduction in bacterial count”.
